Laboratory results reported in patent publication US20130102538A1, “METHOD OF TREATING ALZHEIMER'S DISEASE USING PHARMACOLOGICAL CHAPERONES TO INCREASE PRESENILIN FUNCTION AND GAMMA-SECRETASE ACTIVITY” (AMICUS THERAPEUTICS, INC., priority 2010, published 2013).
Non-standard residues stand in square brackets, D forms with d. Residues, ends and D or L forms follow the SMILES beside them. ξ: configuration not given here. *: point of attachment. Cbz = O=C(OCc1ccccc1)*; Boc = CC(C)(C)OC(=O)*; ξNle = CCCCC(N)C(=O)O

Tests used:
PS1 precursor = target: T1, PS1 precursor (Homo sapiens, UniProt P49768); test: Screening of γ-secretase inhibitors for PS1 precursor (holo) enhancement, western blot; type: cell-based; design: key to PS1 Precursor Enhancement: −: no effect; +: some effect; ++: moderate effect; +++: strong effect; conditions: ~50 uM inhibitor, 24 hrs; for PS1 Precursor Enhancement: SH-SY5Y neuroblastoma cells; for PS1 precursor (45 kDa band) level / stabilization: SY5Y neuroblastomas
T1 construct: The unprocessed or precursor form of PS1 is evidenced by a band at 45 kDa; endogenous in cells; host or cells: SH-SY5Y neuroblastoma cells
Protocol: Eighteen different γ-secretase inhibitors (purchased from Calbiochem) were tested for their ability to stabilize the PS1 precursor. SH-SY5Y neuroblastoma cells (1e6) incubated in 6-well plates were dosed with ˜50 uM γ-secretase inhibitor (10% FBS, DMEM) for 24 hrs. Cells were lysed in 2% CHAPS (TBS+protease inhibitors), cell debris pelleted at 18,000 g. Total protein in cell lysates were determined by BCA and 25 ug of protein/lane loaded onto 4-12% BisTris NuPage gels (Invitrogen) that were electrophoresed at 150V for 1 hr. Gels were transferred to PVDF (25V, 1 hr) and probed with anti-N-term PS1 (1:1000, Abcam cat. #ab10281). Western blots were developed using chemiluminescence and imaged using an Alpha Innotech FluorChem Q imaging system. Γ-secretase inhibitors tested: PME, XX, XVII, X, IX, IV, II, I-40, VII, V, III, II-40, I, XIII, XVI, XIX, XXI, CW.
The mature form of PS1 (where PS1 is processed to form a heterodimer) is evidenced by a prominent band at 27 kDa (developed using an antibody specific for the N-terminus of PS1) and is present in all samples. […] The increase in PS1 precursor protein level is interpreted as stabilization of the PS1 precursor and the stabilization appears to be mechanistically distinct from the inhibition of γ-secretase activity since there is no correlation between γ-secretase inhibitory potency (IC50 for Abeta production) and levels of stabilized PS1 precursor (see Table 1).

γ-secretase = γ-secretase (Homo sapiens, UniProt P49768); conditions: known IC50s of the inhibitors; read-out: IC50 (Abeta production); cited from earlier work

Compound	PS1 Precursor Enhancement (PS1 precursor)	IC50 (γ-secretase) [nM]	PS1 precursor (45 kDa band) level / stabilization (PS1 precursor)
O=C(O)c1cc(Oc2ccc([N+](=O)[O-])cc2)cc(Oc2ccc([N+](=O)[O-])cc2)c1 [CW]	−		
CC(C)C(C=O)NC(=O)C(NC(=O)CNC(=O)OC(C)(C)C)C(C)C (stereo not drawn) [II-40] (Boc-Gly-Val-Val-aldehyde; configuration not given here)	−		
CC(C)C[C@@H](C=O)NC(=O)[C@@H](CC(C)C)NC(=O)OCc1ccccc1 [III]	−	35000	
CCC(C)C(NC(=O)C=Cc1cc(OC)cc(OC)c1)C(=O)NC(C=O)CC(C)C (stereo not drawn) [I-40, trans-3,5-DMC-Ile-Leu-CHO]	−	15000	significantly increased
(11S)-19-tert- butyl 1-methyl 2,14-di- sec-butyl-9,9-difluoro- 5,17-diisopropyl-11- methyl-4,8,10,15,18- pentaoxo-3,6,7,12,13,16- hexaazanon	+	13000	significantly increased
COC(=O)[C@@H](NC(=O)[C@H](CC(C)C)NC(=O)N(Cc1ccccc1)C[C@@H](O)[C@H](Cc1ccccc1)NC(=O)OC(C)(C)C)C(C)C [XVII, (6S,7R,12S,15S)-methyl 6,9-dibenzyl-7-hydroxy-12-isobutyl-15-isopropyl-2,2-dimethyl-4,10,13-trioxo-3-oxa-5,9,11,14-tetraazahexadecan-16-oate]	−	300	
CC(C)CC(NC(=O)OCc1ccccc1)C(=O)NC(C=O)Cc1ccccc1 (stereo not drawn) [V] (Cbz-Leu-Phe-aldehyde; configuration not given here)	−	5000	
CCCCC(C=O)NC(=O)[C@H](CC(C)C)NC(=O)[C@@H](CC(C)C)NC(=O)OCc1ccccc1 (stereo partly drawn) [I, benzyl ((2R)-4-methyl-1-(((2S)-4-methyl-1-oxo-1-((1-oxohexan-2-yl)amino)pentan-2-yl)amino)-1-oxopentan-2-yl)carbamate] (Cbz-[dL]-Leu-[ξNle]-aldehyde)	+		significantly increased
(2R,3R)- 3-(3,4-difluorophenyl)- 2-(4-fluorophenyl)-4- hydroxy-N-((S)-2-oxo-5- phenyl-2,3-dihydro-1H- benzo[e][1,4]diazepin-3- yl)butanamide [XIX]	+	0.06	significantly increased
CCC(C)C(NC(=O)[C@H](Cc1ccc(O)cc1)NC(=O)OCc1ccccc1)C(=O)N[C@H](C=O)CC(C)C (stereo partly drawn) [XIII, benzyl ((2S)-3-(4-hydroxyphenyl)-1-((3-methyl-1-(((S)-4-methyl-1-oxopentan-2-yl)amino)-1-oxopentan-2-yl)amino)-1-oxopropan-2-yl)carbamate]	+	8	significantly increased
CC(C)CC(C=O)NC(=O)C(CC(C)C)NC(=O)OC1CC(C)CCC1C(C)C (centres unmarked) [VII]	−	2300	
COC(=O)[C@@H](NC(=O)[C@H](C)NC(=O)Cc1cc(F)cc(F)c1)c1ccccc1 [XVI]	−	10	
